ChEMBL document CHEMBL1201862, “PubChem BioAssay data set” (2004)
Active and inactive are the calls of the source.

Legend:
[1] = biological target: T1, Sentrin-specific protease 8 (Homo sapiens, UniProt Q96LD8); assay type: functional;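 note: luminescence read-out of SENP8 inhibition, dose-response confirmation following an ultra-high-throughput screen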
T1 sequence (Q96LD8 whole entry): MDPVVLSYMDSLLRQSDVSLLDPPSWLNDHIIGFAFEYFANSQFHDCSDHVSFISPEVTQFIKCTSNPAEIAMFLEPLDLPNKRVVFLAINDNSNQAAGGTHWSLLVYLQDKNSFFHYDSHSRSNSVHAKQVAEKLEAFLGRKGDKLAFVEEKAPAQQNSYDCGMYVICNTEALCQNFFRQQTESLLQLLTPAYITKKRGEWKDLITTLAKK

Caspase-3 = biological target: T2, Caspase-3 (Homo sapiens, UniProt P42574); assay type: functional;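 note: Dose-response selectivity test against caspase-3 for candidate inhibitors of sentrin-specific proteases (SENPs)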
T2 sequence (P42574 whole entry): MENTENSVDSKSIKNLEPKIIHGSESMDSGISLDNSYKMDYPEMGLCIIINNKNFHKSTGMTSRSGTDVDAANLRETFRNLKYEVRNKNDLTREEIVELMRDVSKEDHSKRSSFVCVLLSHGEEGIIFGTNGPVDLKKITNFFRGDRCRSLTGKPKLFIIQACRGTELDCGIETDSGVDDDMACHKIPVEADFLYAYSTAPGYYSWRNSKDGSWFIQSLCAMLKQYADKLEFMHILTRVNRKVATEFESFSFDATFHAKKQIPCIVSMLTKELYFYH

[2] = biological target: T3, Sentrin-specific protease 6 (Homo sapiens, UniProt Q9GZR1); assay type: functional;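 note: Luminescence-based dose-response confirmatory assay of SENP6 inhibition, following up an ultra-high-throughput screen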
T3 sequence (Q9GZR1 whole entry): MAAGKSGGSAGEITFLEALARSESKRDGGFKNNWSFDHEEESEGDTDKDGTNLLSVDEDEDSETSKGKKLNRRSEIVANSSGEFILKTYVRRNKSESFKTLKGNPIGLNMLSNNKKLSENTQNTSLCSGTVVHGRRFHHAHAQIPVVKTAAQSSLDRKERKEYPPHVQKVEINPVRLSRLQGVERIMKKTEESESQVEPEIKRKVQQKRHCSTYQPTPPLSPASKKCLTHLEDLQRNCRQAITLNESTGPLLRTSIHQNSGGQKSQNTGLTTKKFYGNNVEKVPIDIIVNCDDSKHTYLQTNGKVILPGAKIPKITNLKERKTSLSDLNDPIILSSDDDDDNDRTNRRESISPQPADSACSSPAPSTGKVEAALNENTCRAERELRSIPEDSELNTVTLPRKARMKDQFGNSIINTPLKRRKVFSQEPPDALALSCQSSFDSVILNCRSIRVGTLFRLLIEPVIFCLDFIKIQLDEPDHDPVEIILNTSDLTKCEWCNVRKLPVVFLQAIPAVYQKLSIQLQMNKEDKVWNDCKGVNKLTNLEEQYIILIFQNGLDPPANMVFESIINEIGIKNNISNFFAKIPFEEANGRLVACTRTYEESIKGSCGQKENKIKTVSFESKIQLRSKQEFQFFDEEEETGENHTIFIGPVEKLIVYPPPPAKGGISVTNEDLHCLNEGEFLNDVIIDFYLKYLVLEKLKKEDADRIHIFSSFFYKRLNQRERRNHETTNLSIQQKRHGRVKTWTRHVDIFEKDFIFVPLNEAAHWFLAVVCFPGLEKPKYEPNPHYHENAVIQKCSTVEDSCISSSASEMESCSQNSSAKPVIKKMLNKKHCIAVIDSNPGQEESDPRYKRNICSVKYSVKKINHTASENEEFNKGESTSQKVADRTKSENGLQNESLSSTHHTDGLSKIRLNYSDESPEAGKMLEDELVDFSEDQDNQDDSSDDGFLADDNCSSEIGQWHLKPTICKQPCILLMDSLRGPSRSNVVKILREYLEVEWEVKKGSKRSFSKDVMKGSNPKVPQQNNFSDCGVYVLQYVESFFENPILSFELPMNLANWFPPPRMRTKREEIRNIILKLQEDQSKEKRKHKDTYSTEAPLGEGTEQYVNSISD

[3] = biological target: T4, Sentrin-specific protease 7 (Homo sapiens, UniProt Q9BQF6); assay type: functional;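 note: Luminescence-based dose-response confirmation of ultra-high-throughput screening hits, measuring inhibition of SENP7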
T4 sequence (Q9BQF6 whole entry): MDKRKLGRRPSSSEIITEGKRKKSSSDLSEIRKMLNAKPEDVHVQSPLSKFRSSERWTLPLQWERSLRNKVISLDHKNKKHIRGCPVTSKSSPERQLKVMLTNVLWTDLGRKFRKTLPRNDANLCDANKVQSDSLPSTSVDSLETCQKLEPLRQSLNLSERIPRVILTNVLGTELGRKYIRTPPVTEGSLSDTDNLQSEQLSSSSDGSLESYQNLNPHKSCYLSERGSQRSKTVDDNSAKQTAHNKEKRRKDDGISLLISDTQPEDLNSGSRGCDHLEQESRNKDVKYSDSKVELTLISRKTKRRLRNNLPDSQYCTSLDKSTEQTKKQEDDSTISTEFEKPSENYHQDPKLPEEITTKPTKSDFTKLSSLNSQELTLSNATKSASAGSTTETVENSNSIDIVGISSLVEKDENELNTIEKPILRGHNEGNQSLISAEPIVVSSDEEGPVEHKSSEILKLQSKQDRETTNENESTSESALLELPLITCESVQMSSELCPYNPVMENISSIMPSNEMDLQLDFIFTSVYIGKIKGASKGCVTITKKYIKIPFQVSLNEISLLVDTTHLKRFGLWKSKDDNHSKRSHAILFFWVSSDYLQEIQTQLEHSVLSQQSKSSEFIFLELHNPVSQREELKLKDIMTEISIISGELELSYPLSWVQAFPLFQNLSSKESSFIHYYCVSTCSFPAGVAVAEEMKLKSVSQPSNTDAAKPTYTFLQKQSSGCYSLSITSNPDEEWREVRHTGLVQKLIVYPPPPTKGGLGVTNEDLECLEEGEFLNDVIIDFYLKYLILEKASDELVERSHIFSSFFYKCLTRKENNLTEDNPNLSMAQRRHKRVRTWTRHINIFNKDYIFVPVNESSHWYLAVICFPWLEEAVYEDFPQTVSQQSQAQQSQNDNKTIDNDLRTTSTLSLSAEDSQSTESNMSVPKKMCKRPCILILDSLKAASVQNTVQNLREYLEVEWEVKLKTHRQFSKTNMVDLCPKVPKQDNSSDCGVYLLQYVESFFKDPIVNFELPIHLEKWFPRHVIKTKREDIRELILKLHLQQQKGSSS

Cytochrome P450 3A4 = Cytochrome P450 3A4 (Homo sapiens, UniProt P08684); settings: Potency;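 note: confirmatory qHTS run detecting inhibitors and substrates of CYP3A4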
[4] = biological target: Voltage-dependent T-type calcium channel subunit alpha-1H (Homo sapiens, UniProt O95180); assay type: functional;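 note: channel activity triggered by adding a high calcium stimulation buffer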
[5] = Trypanosoma cruzi growth suppression in host cells – NIH3T3 host cells, beta-gal luminescence, confirmation (AID 2044); assay type: functional, cell-based;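 note: intracellular parasites grown in NIH/3T3 mouse fibroblasts as host cells; luminescent beta-galactosidase reporter signal from transgenic T. cruzi replicating inside host cells; inhibitors lower the luminescence signal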
[6] = NIH3T3 cell viability loss – ATP luminescence, mouse fibroblasts, counter-screen, dose response (AID 2010); assay type: functional, cell-based;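 note: cells exposed to compound for about 90 hours before reading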
[7] = NIH-3T3 fibroblast cytotoxicity, dose response, cytotoxicity control, cell-based, fluorescence, Alamar Blue, secondary assay (AID 2327); assay type: functional;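 note: NIH-3T3 mouse fibroblasts cultured with fluconazole at 8 µg/mL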
[8] = A cytotoxicity screen of small molecule inhibitors of the PhoP region in Salmonella typhi identified in the primary screen. [Related pubchem assays: 1850, 1864, 1985 ]; assay type: functional
[9] = fluconazole-exposed Candida albicans growth modulators – fluorescence, retest, confirmation (AID 2467); assay type: functional, cell-based
cells = assay type: functional
[10] = THP-1 cell cytotoxicity, dose response, cytotoxicity control for non-replicating M. tuberculosis project (AID 489025); assay type: functional
INS1 = test: INS-1E survival protection against cytokine death – cell-based, luminescence, retest, dose response (AID 449756); assay type: functional; settings: Rattus norvegicus;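 note: cell death triggered by IL-1 beta plus TNF-alpha plus IFN-gamma mixture; protective hits raise ATP signal compared with cytokine alone wells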
[11] = biological target: T5, Rac GTPase-activating protein 1 (Homo sapiens, UniProt Q9H0H5); test: blockers of MgcRacGAP-driven Rac1 GTP hydrolysis – biochemical, ADP Hunter fluorescence, primary and confirmatory, confirmation (AID 624330); assay type: functional
T5 sequence (Q9H0H5 whole entry): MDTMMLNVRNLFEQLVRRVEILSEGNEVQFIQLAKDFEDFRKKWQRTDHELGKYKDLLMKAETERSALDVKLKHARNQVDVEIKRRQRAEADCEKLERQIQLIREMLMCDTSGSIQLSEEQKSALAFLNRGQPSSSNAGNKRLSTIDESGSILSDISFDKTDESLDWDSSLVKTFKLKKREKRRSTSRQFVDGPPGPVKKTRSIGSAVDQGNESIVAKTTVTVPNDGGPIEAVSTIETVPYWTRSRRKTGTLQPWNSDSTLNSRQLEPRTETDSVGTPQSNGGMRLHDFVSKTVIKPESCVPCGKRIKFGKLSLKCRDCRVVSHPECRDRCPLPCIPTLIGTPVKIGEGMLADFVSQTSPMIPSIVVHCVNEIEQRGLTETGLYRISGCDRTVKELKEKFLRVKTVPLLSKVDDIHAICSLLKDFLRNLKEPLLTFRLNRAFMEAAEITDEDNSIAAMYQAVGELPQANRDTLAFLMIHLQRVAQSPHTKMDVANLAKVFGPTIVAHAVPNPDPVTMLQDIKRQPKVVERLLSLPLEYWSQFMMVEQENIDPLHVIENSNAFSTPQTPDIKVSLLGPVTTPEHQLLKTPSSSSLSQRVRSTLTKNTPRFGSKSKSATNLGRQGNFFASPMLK

[12] = viability loss in HeLa cells – cytotoxicity control for MgcRacGAP inhibitor project, dose response (AID 624300); assay type: functional
[13] = biological target: FAD-linked sulfhydryl oxidase ALR (Homo sapiens, UniProt P55789); test: ALR-catalysed DTT oxidation blockers – biochemical, H2O2 detection, luminescence, cherry-pick, dose response (AID 493248)
[14] = tested on: Streptococcus sp. 'group A'; test: Streptococcus pyogenes SK(-)GAS viability under kanamycin – luminescence, BacTiterGlo, confirmation, counter-screen for streptokinase expression inhibitor project, dose response (AID 1900); assay type: functional, organism-based
Streptococcus = test: GAS UMAA2166 growth inhibition – luminescence, BacTiterGlo, counter-screen for streptokinase expression inhibitor project, dose response (AID 1915); assay type: functional, organism-based;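 note: potency for reduction of bacterial viability or growth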
Streptokinase A = biological target: T6, Streptokinase A (Streptococcus pyogenes serotype M1, UniProt P10520); test: viability-normalized secreted streptokinase activity reduction – plasminogen activation absorbance, OD405, dose response (AID 1914); assay type: functional, Streptococcus pyogenes M1 GAS;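 note: secreted streptokinase activity via plasminogen activation per viability signal from cell pellet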
T6 sequence (P10520 whole entry): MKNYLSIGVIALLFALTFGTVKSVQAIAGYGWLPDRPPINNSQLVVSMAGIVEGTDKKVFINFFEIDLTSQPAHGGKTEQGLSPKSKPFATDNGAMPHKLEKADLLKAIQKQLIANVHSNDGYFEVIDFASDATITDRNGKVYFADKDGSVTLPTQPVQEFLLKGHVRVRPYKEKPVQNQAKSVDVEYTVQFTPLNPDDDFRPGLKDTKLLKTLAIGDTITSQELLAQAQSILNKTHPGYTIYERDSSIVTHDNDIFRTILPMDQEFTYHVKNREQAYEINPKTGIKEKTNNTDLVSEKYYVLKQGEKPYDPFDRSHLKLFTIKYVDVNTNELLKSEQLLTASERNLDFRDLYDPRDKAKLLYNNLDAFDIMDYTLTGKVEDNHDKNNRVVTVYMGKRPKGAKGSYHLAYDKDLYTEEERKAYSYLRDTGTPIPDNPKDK

Sequence of Cytochrome P450 3A4 (P08684 whole entry): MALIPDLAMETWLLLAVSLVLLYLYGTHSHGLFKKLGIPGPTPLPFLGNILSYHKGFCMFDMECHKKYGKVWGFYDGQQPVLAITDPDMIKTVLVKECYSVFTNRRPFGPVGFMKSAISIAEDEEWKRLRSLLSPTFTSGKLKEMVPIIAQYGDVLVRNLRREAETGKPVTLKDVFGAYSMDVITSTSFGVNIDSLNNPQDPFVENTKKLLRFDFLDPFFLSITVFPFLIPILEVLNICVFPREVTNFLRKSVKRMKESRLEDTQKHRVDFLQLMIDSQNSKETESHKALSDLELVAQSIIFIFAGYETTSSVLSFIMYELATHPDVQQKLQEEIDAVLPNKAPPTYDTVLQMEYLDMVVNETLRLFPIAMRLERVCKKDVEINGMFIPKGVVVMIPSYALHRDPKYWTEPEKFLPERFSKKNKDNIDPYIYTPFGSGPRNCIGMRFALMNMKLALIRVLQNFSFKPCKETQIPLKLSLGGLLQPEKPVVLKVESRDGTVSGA
Sequence of Voltage-dependent T-type calcium channel subunit alpha-1H (O95180 whole entry): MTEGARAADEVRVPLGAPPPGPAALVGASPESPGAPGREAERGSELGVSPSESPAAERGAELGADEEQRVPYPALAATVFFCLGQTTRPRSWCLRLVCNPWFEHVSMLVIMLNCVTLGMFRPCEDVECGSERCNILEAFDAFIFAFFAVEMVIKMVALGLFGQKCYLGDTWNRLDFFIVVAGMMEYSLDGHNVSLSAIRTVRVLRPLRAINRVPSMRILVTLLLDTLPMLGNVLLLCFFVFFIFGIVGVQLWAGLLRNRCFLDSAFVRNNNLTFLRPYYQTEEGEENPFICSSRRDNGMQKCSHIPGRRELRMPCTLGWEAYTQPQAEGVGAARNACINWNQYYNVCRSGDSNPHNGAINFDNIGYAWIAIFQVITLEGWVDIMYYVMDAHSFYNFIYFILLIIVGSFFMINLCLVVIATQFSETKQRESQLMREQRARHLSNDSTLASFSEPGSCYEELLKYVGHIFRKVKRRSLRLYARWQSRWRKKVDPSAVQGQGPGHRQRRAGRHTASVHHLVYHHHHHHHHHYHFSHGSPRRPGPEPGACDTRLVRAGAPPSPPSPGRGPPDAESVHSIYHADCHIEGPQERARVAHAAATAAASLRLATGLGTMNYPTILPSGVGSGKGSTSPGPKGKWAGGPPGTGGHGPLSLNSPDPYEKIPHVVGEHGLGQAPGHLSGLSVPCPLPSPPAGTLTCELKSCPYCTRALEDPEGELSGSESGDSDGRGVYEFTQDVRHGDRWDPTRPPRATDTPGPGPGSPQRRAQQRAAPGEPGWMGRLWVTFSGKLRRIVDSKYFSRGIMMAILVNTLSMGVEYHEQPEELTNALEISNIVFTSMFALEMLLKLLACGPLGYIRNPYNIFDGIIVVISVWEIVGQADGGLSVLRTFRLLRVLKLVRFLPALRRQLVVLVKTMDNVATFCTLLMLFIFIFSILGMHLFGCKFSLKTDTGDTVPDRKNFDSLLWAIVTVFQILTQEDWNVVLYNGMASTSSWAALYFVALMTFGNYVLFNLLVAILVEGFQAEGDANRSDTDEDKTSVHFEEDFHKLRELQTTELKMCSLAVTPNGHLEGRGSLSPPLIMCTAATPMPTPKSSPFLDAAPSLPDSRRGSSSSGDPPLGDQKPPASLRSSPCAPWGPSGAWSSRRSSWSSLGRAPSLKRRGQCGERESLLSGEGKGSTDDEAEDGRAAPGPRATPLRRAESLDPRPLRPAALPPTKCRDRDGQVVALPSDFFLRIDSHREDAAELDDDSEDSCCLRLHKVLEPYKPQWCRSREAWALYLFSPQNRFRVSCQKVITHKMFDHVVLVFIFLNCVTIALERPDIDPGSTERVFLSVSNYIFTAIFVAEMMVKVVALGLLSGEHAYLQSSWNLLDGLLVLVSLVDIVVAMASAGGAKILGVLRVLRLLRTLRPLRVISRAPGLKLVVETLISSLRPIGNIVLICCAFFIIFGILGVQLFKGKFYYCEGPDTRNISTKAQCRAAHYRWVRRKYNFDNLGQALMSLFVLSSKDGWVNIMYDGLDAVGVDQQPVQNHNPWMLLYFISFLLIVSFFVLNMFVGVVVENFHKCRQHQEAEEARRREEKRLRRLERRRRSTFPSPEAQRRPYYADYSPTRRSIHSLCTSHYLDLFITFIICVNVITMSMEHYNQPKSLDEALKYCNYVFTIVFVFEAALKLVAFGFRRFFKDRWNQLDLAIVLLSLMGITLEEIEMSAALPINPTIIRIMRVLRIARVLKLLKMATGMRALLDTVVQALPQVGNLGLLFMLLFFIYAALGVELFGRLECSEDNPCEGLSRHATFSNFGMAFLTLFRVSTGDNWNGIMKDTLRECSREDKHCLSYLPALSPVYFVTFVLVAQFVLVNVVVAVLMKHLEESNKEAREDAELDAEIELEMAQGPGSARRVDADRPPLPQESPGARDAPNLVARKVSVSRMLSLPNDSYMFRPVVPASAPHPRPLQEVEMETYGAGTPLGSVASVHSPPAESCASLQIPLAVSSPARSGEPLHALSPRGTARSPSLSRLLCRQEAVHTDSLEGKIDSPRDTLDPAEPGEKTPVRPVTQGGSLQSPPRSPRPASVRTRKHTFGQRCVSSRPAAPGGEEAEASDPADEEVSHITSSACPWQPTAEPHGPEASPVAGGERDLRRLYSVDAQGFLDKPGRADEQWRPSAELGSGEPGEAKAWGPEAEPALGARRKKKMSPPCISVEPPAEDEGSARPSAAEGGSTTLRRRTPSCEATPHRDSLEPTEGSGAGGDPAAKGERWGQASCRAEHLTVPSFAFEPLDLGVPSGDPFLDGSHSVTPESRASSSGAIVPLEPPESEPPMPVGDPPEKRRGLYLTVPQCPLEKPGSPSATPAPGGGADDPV
Sequence of FAD-linked sulfhydryl oxidase ALR (P55789 whole entry): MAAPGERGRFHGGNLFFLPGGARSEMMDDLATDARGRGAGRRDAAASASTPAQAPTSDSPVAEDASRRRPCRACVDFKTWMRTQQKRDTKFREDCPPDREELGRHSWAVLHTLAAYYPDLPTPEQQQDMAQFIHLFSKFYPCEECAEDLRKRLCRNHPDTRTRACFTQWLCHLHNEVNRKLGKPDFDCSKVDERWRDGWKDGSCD

SMILES: c1ccc(Nc2ncnc3c2oc2ccccc23)cc1
- IC50 [1]: > 100 µM (inactive)
- IC50 (Caspase-3): 31.3 µM (active)
- IC50 [2]: > 100 µM (inactive)
- IC50 [3]: 11.9 µM (active)

SMILES: COC(=O)c1ccc(C(/C=C/[C@@H](C)C(=O)N(C)C)NC(=O)OCc2ccccc2)cc1 (stereo partly specified)
- AC50 (Cytochrome P450 3A4): 10 µM (inconclusive)

SMILES: O=C(CSCc1nc2ccccc2[nH]1)N1CCN(c2cccc(Cl)c2)CC1
- EC50 [4]: 3.55 µM (active)

SMILES: Cc1ccc(CC(=O)Nc2ncc([N+](=O)[O-])s2)cc1
- EC50 [5]: 0.687 µM (active)
- EC50 [6]: > 30 µM (not active)
- EC50 [7]: 37.3 µM (active)
- EC50 [8]: > 50 µM (active)
- EC50 [9]: 0.033 µM (active)

SMILES: Cc1nc(CS(=O)(=O)c2ccc(Cl)cc2)cc(Sc2ccc(Cl)cc2)n1
- EC50 [4]: 4.35 µM (active)

SMILES: CC1(C)CC[C@]2(C(=O)O)CC[C@@]3(C)C(=CCC4[C@@]5(C)CCC(O)[C@@](C)(CO)C5CC[C@@]43C)C2C1 (stereo partly specified)
- AC50 (Cytochrome P450 3A4): 12.6 µM (inconclusive)

SMILES: Nc1ncnc(Oc2cccc3cccnc23)c1[N+](=O)[O-]
- IC50 (cells): 10.8 µM (active)
- CC50 [10]: 39.5 µM (active)

SMILES: CC(C)(C)n1nnnc1C(c1ccc(F)cc1)N(Cc1ccc(F)cc1)Cc1ccco1 (stereo unspecified)
- EC50 [4]: 2.6 µM (active)
- AC50 (INS1): 8.41 µM (active)

SMILES: CCO/C=C1/C(=O)N(c2ccc(OC)cc2)C(=O)c2ccccc21
- IC50 [1]: 11.6 µM (active)
- IC50 (Caspase-3): 7.36 µM (active)
- IC50 [2]: 8.55 µM (active)
- IC50 [3]: 25.8 µM (active)

SMILES: COC1C=CC23c4cc5c(cc4CN(CC2O)C3C1)OCO5 (stereo unspecified)
- AC50 (Cytochrome P450 3A4): 39.8 µM (inconclusive)

SMILES: Oc1ccc(C(c2nnnn2C2CCCC2)N2CCc3ccccc3C2)cc1 (stereo unspecified)
- EC50 [4]: 5.95 µM (active)

SMILES: O=C(NCCCN1CCOCC1)c1c(O)nc2c(Br)cc(Br)cc2c1O
- IC50 (cells): 1.04 µM (active)
- CC50 [10]: > 40 µM (active)

SMILES: COc1cccc2oc(-c3ccccc3)cc(=O)c12
- AC50 (Cytochrome P450 3A4): 31.6 µM (inconclusive)

SMILES: COc1cc(/C=N/NC(=O)c2cc(-c3c(C)nn(-c4ccccc4)c3C)[nH]n2)ccc1O
- IC50 [11]: 39.1 µM (active)
- CC50 [12]: 90 µM (active)
- AC50 [13]: 0.105 µM (active)
- EC50 [14]: 4.04 µM (active)
- EC50 (Streptococcus): 4.37 µM (active)
- EC50 (Streptokinase A): 43.9 µM (inconclusive)

SMILES: COc1cc(-c2cc(-c3ccc(O)cc3)nc(N)c2C#N)ccc1O
- IC50 [11]: 34.7 µM (active)
- CC50 [12]: 100 µM (active)

SMILES: COc1c2ccoc2nc2c(OC)c(OCC(O)C(C)(C)O)ccc12 (stereo unspecified) [EVOXINE]
- AC50 (Cytochrome P450 3A4): 15.8 µM (inconclusive)

SMILES: COC(=O)c1c(C)cc(O)cc1O [METHYL ORSELLINATE]
- AC50 (Cytochrome P450 3A4): 12.6 µM (inconclusive)
